Values of other authors as cited in patent publication US9987252B2, “Primary amines and derivitves thereof as modulators of the 5-HT2A serotonin receptor useful for the treatment of disorders related thereto” (Arena Pharmaceuticals, Inc., priority 2006, dated 2018).

System: diabetic rats
Details: 19.8% sciatic motor conduction deficit in diabetic rats

## O=CN1CCC(C(=O)NCCN2CCC(=C3c4ccccc4C=Cc4ccccc43)CC2)CC1 [AT-1015]
  correction of sciatic motor conduction deficit: 82.6-99.7%

## Cc1nc2sccn2c(=O)c1CCN1CCC(=C(c2ccc(F)cc2)c2ccc(F)cc2)CC1 [ritanserin]
  correction of sciatic motor conduction deficit: 82.6-99.7%

## COc1cccc(CCc2ccccc2OCC(CN(C)C)OC(=O)CCC(=O)O)c1 (stereo not drawn) [sarpogrelate]
  correction of sciatic motor conduction deficit: 82.6-99.7%
